Source: ChEMBL document CHEMBL6078730, “Exploring the antiproliferative and proapoptotic activities of new pyridopyrimidine derivatives and their analogs” (Bioorg Med Chem, 2025)
Converted amounts (≈) assume the structure as drawn. The source made the active and inactive calls. The calls are words filed in the database; no cut-off is given here.

Key:
[1] = target: T1, Phosphatidylinositol 4,5-bisphosphate 3-kinase catalytic subunit delta isoform (Homo sapiens, UniProt O00329); assay: Inhibition of PI3K delta (unknown origin) using PIP2 as substrate preincubated for 10 mins followed by substrate addition and measured after 1 hrs by colorimetric analysis
T1 sequence (O00329 whole entry): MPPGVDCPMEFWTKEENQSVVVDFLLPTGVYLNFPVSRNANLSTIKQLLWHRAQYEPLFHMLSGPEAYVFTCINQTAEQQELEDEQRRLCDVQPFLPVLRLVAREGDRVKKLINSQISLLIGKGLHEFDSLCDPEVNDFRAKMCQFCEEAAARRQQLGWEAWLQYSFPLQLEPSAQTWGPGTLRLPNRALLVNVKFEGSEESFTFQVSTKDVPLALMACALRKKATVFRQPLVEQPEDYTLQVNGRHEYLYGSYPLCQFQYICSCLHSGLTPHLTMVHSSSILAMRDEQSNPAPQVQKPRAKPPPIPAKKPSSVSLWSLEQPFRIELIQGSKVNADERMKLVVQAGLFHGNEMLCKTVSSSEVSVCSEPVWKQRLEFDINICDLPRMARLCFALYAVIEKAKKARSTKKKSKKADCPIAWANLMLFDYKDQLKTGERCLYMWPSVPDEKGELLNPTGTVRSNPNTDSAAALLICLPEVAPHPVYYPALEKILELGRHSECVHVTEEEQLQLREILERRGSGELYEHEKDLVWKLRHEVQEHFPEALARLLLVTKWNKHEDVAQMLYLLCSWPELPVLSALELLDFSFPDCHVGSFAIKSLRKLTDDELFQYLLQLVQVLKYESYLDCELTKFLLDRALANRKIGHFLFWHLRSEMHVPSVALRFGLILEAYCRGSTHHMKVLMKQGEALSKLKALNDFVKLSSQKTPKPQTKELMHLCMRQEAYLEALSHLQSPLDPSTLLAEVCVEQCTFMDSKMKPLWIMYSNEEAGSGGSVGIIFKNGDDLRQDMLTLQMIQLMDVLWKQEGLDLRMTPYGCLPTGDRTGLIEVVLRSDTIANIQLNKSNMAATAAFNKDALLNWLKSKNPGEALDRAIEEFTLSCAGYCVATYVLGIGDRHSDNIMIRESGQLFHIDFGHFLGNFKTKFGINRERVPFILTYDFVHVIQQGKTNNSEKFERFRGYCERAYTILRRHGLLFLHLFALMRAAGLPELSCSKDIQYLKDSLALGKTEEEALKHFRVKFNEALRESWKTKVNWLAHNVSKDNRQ

T47D [2] = assay: Induction of apoptosis in human T47D cells assessed as increase in p53 expression at IC50 concentration incubated for 48 hrs by Western blotting analysis; type: functional, cell-based
T47D [3] = assay: Induction of apoptosis in human T47D cells assessed as increase in early apoptotic cells at IC50 concentration incubated for 48 hrs by AnnexinV-FITC/PI staining based flow cytometry (reference value: 0.64%); type: functional
[4] = Upregulation of Bax expression in human T47D cells assessed as fold change at IC50 concentration incubated for 48 hrs by Western blotting analysis; type: functional
[5] = target: Phosphatidylinositol 4,5-bisphosphate 3-kinase catalytic subunit gamma isoform (Homo sapiens, UniProt P48736); assay: Inhibition of PI3K gamma (unknown origin) using PIP2 as substrate preincubated for 10 mins followed by substrate addition and measured after 1 hrs by colorimetric analysis
Sequence of Phosphatidylinositol 4,5-bisphosphate 3-kinase catalytic subunit gamma isoform (P48736 whole entry, canonical isoform): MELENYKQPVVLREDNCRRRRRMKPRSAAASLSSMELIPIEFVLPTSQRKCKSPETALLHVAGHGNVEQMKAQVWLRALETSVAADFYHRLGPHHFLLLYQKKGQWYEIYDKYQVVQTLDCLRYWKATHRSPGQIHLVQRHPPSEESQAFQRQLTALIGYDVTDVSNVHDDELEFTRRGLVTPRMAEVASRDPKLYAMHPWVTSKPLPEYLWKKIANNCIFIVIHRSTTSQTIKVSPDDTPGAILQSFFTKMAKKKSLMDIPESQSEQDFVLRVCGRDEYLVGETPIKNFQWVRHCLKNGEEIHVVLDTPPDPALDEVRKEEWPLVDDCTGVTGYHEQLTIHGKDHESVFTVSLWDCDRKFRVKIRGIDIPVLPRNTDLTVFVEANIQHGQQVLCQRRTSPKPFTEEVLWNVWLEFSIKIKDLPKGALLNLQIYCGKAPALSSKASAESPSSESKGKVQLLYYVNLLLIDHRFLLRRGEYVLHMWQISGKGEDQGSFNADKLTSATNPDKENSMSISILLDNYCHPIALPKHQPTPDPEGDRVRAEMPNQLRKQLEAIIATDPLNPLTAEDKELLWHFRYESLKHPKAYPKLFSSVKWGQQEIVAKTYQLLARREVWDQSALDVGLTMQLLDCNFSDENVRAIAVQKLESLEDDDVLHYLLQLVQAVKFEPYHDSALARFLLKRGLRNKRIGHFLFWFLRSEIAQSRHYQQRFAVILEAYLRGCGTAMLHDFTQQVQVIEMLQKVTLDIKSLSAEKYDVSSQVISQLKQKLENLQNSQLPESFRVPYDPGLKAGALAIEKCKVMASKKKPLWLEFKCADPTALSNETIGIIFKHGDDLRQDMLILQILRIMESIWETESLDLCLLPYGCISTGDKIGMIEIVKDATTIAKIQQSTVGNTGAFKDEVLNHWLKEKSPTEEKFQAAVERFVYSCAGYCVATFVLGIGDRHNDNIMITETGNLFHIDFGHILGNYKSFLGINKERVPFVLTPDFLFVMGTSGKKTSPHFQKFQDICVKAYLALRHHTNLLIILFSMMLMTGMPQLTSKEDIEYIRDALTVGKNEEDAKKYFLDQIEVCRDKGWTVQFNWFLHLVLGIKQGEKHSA

[6] = target: Phosphatidylinositol 4,5-bisphosphate 3-kinase catalytic subunit alpha isoform (Homo sapiens, UniProt P42336); assay: Inhibition of PI3K alpha (unknown origin) using PIP2 as substrate preincubated for 10 mins followed by substrate addition and measured after 1 hrs by colorimetric analysis
Sequence of Phosphatidylinositol 4,5-bisphosphate 3-kinase catalytic subunit alpha isoform (P42336 whole entry, canonical isoform): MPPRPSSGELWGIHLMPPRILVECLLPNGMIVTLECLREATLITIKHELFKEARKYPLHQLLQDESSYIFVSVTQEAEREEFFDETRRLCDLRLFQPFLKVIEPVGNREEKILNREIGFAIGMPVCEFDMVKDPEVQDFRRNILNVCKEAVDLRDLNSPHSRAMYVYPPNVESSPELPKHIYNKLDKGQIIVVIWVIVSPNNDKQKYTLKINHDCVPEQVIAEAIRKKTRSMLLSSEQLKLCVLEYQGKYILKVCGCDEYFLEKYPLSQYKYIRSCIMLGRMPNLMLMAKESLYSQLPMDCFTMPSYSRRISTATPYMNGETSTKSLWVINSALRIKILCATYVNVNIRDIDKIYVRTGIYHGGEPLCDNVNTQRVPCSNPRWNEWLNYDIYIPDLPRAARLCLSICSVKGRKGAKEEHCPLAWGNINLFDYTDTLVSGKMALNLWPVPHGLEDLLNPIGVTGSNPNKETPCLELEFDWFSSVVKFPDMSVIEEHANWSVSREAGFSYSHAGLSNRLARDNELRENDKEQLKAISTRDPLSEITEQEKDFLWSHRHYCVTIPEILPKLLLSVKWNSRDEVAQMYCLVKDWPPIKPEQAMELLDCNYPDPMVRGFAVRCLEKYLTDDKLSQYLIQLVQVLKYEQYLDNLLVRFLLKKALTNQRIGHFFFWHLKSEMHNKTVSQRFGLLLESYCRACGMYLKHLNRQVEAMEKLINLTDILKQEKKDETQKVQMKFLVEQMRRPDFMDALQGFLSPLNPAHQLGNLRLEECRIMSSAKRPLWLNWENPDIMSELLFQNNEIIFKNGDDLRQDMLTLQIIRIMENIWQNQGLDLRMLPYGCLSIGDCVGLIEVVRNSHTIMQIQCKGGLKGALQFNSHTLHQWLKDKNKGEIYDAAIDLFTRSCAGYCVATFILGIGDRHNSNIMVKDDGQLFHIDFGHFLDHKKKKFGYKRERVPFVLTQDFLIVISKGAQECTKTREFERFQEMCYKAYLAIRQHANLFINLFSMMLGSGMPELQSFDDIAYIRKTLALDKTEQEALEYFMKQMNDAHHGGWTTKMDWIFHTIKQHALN

T47D [7] = assay: Induction of cell cycle arrest in human T47D cells assessed as increase in accumulation of cells at G2-M phase at IC50 concentration incubated for 48 hrs by […]PI staining based flow cytometry analysis (reference value: 17.28%); type: functional
[8] = target: Phosphatidylinositol 4,5-bisphosphate 3-kinase catalytic subunit beta isoform (Homo sapiens, UniProt P42338); assay: Inhibition of PI3K beta (unknown origin) using PIP2 as substrate preincubated for 10 mins followed by substrate addition and measured after 1 hrs by colorimetric analysis
Sequence of Phosphatidylinositol 4,5-bisphosphate 3-kinase catalytic subunit beta isoform (P42338 whole entry, canonical isoform): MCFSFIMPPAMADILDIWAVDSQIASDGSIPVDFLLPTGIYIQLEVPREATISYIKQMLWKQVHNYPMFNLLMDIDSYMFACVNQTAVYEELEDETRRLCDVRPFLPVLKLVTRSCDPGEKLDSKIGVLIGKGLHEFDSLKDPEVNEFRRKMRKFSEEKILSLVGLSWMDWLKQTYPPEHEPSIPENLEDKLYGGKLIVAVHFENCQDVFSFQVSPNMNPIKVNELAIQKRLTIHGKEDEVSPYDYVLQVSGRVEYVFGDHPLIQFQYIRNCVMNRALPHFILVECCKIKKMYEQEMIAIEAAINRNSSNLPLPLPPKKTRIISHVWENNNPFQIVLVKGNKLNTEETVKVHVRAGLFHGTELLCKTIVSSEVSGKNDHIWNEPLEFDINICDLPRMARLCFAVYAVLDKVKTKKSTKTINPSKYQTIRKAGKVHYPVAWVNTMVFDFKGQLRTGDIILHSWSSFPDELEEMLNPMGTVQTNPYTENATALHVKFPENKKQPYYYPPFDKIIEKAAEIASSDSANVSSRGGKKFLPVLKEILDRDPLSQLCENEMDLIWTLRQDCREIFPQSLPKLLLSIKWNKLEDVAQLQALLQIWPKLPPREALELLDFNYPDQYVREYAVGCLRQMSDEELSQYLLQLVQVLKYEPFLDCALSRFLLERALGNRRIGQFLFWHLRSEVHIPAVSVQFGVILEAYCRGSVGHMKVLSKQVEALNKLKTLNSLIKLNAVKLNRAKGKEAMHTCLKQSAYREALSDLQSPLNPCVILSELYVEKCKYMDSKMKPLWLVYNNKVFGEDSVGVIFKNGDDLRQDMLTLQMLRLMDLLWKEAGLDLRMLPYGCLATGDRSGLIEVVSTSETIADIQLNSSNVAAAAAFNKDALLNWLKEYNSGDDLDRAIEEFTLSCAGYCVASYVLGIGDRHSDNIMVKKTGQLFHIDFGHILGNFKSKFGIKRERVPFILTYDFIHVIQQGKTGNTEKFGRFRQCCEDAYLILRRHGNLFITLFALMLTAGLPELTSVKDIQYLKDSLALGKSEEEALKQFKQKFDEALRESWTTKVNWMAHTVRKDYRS

T47D [9] = assay: Antiproliferative activity against human T47D cells assessed as reduction in cell growth inhibition at 10 uM incubated for 24 hrs by MTT assay relative to control; type: functional; conditions: read-out: GI
T47D [10] = assay: Induction of apoptosis in human T47D cells assessed as increase in necrotic cells at IC50 concentration incubated for 48 hrs by AnnexinV-FITC/PI staining based flow cytometry (reference value: 1.42%); type: functional
T47D [11] = assay: Induction of cell cycle arrest in human T47D cells assessed as decrease in accumulation of cells at G0-G1 phase at IC50 concentration incubated for 48 hrs by […]PI staining based flow cytometry analysis (reference value: 52.84%); type: functional; design: scale not given: the % may be the effect or the level left
[12] = Downregulation of Bcl-2 expression in human T47D cells assessed as fold change at IC50 concentration incubated for 48 hrs by Western blotting analysis; type: functional
T47D [13] = assay: Antiproliferative activity against human T47D cells assessed as inhibition of cell proliferation incubated for 24 hrs by MTT assay; type: functional, cell-based
T47D [14] = assay: Induction of apoptosis in human T47D cells assessed as decrease in viable cells at IC50 concentration incubated for 48 hrs by AnnexinV-FITC/PI staining based flow cytometry relative to control; type: functional, cell-based
T47D [15] = assay: Induction of apoptosis in human T47D cells assessed as inhibition in Bcl2 expression at IC50 concentration incubated for 48 hrs by Western blotting analysis; type: functional, cell-based
T47D [16] = assay: Induction of cell cycle arrest in human T47D cells assessed as decrease in accumulation of cells at S phase at IC50 concentration incubated for 48 hrs by […]PI staining based flow cytometry analysis (reference value: 29.88%); type: functional; design: scale not given: the % may be the effect or the level left
[17] = Cytotoxicity against human MCF-10A cells assessed as reduction in cell viability at 10 uM incubated for 24 hrs by MTT assay; type: toxicity, cell-based
T47D [18] = assay: Induction of apoptosis in human T47D cells assessed as increase in late apoptotic cells at IC50 concentration incubated for 48 hrs by AnnexinV-FITC/PI staining based flow cytometry (reference value: 0.13%); type: functional
T47D [19] = assay: Induction of apoptosis in human T47D cells assessed as increase in Bax/Bcl-2 ratio at IC50 concentration incubated for 48 hrs by Western blotting analysis; type: functional, cell-based
T47D [20] = assay: Induction of apoptosis in human T47D cells assessed as increase in Bax expression at IC50 concentration incubated for 48 hrs by Western blotting analysis; type: functional, cell-based
[21] = Selectivity index, ratio of IC50 for human MCF-10A cells to IC50 for human T47D cells; type: toxicity; conditions: MCF-10A cells versus T47D cells, read-out: Ratio IC50
T47D [22] = assay: Induction of apoptosis in human T47D cells assessed as fold increase in ratio of apoptotic cells incubated for 48 hrs by AnnexinV-FITC/PI staining based flow cytometry; type: functional
MDA-MB-435 = assay: Antiproliferative activity against human MDA-MB-435 cells assessed as reduction in cell growth inhibition at 10 uM incubated for 24 hrs by MTT assay relative to control; type: functional; conditions: read-out: GI
NCI-H23 = assay: Antiproliferative activity against human NCI-H23 cells assessed as reduction in cell growth inhibition at 10 uM incubated for 24 hrs by MTT assay relative to control; type: functional; conditions: read-out: GI

O=c1[nH]c(=S)[nH]c2nc(-c3ccc(Cl)cc3)ccc12
IC50 [1]: 40.9 µM
Activity (T47D [2]): Active
Activity (T47D [3]): 18.83%
fold change (FC) [4]: 2.38
IC50 [5]: 2.12 µM
IC50 [6]: 0.632 µM
Activity (T47D [7]): 28.02%
IC50 [8]: 7.69 µM
inhibition of growth at 10 µM (T47D [9]): 81%
Activity (T47D [10]): 6.88%
Activity (T47D [11]): 45.11%
fold change (FC) [12]: 0.69
IC50 (T47D [13]): 1.46 mg/L (≈ 5.04 µM)
Activity (T47D [14]): Active
Activity (T47D [15]): Active
Activity (T47D [16]): 26.87%
IC50 at 24 h [17]: 422 mg/L (≈ 1460 µM)
Activity (T47D [18]): 11.51%
Activity (T47D [19]): Active
Activity (T47D [20]): Active
selectivity ratio [21]: 289
fold change (FC) (T47D [22]): ~37

O=C(C1=CNC(=S)NC1c1ccc(F)cc1)c1ccc(Cl)cc1 (stereo not given)
inhibition of growth at 10 µM (MDA-MB-435): 63%

O=c1[nH]c(=S)[nH]c2nc(-c3ccc(Br)cc3)ccc12
inhibition of growth at 10 µM (T47D [9]): 81%
IC50 (T47D [13]): 9.62 mg/L (≈ 28.8 µM)

COc1ccc(-c2ccc3c(=O)[nH]c(=S)[nH]c3n2)cc1
inhibition of growth at 10 µM (T47D [9]): 81%
IC50 (T47D [13]): 52.7 mg/L (≈ 185 µM)

Cc1ccc(-c2ccc3c(=O)[nH]c(=S)[nH]c3n2)cc1
inhibition of growth at 10 µM (T47D [9]): 81%
IC50 (T47D [13]): 18.4 mg/L (≈ 68.4 µM)

O=c1[nH]c(=S)[nH]c2nc(-c3ccc(F)cc3)ccc12
inhibition of growth at 10 µM (T47D [9]): 81%
IC50 (T47D [13]): 6.09 mg/L (≈ 22.3 µM)

Cc1ccc(C(=O)C2=CNC(=O)NC2c2ccc(O)cc2)cc1 (stereo not given)
inhibition of growth at 10 µM (NCI-H23): 114%

O=C(C1=CNC(=S)NC1c1ccc(F)cc1)c1ccccc1 (stereo not given)
inhibition of growth at 10 µM (MDA-MB-435): 63%

O=c1[nH]c(=S)[nH]c2nc(-c3ccc([N+](=O)[O-])cc3)ccc12
inhibition of growth at 10 µM (T47D [9]): 81%
IC50 (T47D [13]): 22.1 mg/L (≈ 73.7 µM)

O=C(C1=CNC(=S)NC1c1ccc(F)cc1)c1ccc(F)cc1 (stereo not given)
inhibition of growth at 10 µM (MDA-MB-435): 63%

O=c1[nH]c(=S)[nH]c2nc(-c3ccccc3)ccc12
inhibition of growth at 10 µM (T47D [9]): 50%
IC50 (T47D [13]): 16.1 mg/L (≈ 63 µM)

Cc1ccc(C(=O)C2=CNC(=S)NC2c2ccc(O)cc2)cc1 (stereo not given)
inhibition of growth at 10 µM (MDA-MB-435): 184%

CS(=O)(=O)N1CCN(Cc2cc3nc(-c4cccc5[nH]ncc45)nc(N4CCOCC4)c3s2)CC1 [PICTILISIB]
IC50 (T47D [13]): 2.56 mg/L (≈ 4.98 µM)
